For data set [1], the system named is Plasmodium falciparum. Kind of data set: Antiplasmodial activity against Plasmodium falciparum NF54 erythrocytic stages assessed as parasite growth inhibition preincubated overnight followed by [G-3H]hypoxanthine addition and measured after 24 hrs by liquid scintillation counting method. The data set is classed as functional, organism-based.
For data set [2], the system named is L6. In words: Cytotoxicity against rat L6 cells. It counts as cell-based.
The nature of data set [3]: Selectivity index, ratio of IC50 for rat L6 cells to IC50 for Plasmodium falciparum NF54. The following applies: read-out: Ratio IC50. It counts as toxicity.
Data set [4] deals with Trypanosoma brucei rhodesiense. In words: Trypanocidal activity against Trypanosoma brucei rhodesiense STIB900 trypomastigotes incubated for 72 hrs by Alamar blue assay. The data set is classed as functional, organism-based. The following applies: STIB900, 72 h. (In general: Alamar Blue is a resazurin reagent that responds to reducing activity.)
Data set [5] is described as follows: Selectivity index, ratio of IC50 for rat L6 cells to IC50 for Trypanosoma brucei rhodesiense STIB900 trypomastigotes. The data set is classed as toxicity. The conditions noted are these: read-out: Ratio IC50.
Data set [6] has as its system Mycolicibacterium smegmatis. Kind of data set: Antimycobacterial activity against Mycobacterium smegmatis mc2 155 ATCC 700084 assessed as inhibition of visible growth of bacteria by MTT assay. The data set is classed as functional. (Formazan colour is commonly taken as a measure of viable cells.)
Data set [7] relates to Mycolicibacterium smegmatis. Kind of data set: Antimycobacterial activity against Mycobacterium smegmatis mc2 155 ATCC 700084 assessed as fold reduction in EtBr MIC at half MIC concentration. The data set is classed as functional.

In brackets after ≈: the same amount, converted by molar mass.

We go through 21 molecules from ChEMBL document CHEMBL4765460, “Palladium-catalysed synthesis of arylnaphthoquinones as antiprotozoal and antimycobacterial agents” (Eur J Med Chem, 2020).

By MIC is commonly meant the lowest concentration that inhibits growth of the organism.

As to `O=C1C=C(c2ccccc2)C(=O)c2ccccc21`, the IC50 was 11000 nM in data set [1] (read-out: IC50); 11000 nM in data set [1] (read-out: pIC50 (converted)); 19400 nM in data set [2]; 60 nM in data set [4] (read-out: IC50); 55 nM in data set [4] (read-out: pIC50 (converted)). Besides, the selectivity ratio in data set [3] turned out to be 1.8; in data set [5] it was 323. In addition, the MIC in data set [6] was 8 µg/mL (≈ 34.2 µM). In addition, the “fold change (FC)” value in data set [7] amounted to 4.
`Cc1ccc(C2=CC(=O)c3ccccc3C2=O)cc1`: the IC50 in data set [1] (read-out: IC50) is 3860 nM; in data set [1] (read-out: pIC50 (converted)), 3890 nM; in data set [2] it was 7260 nM; in data set [4] (read-out: IC50) it was 80 nM; in data set [4] (read-out: pIC50 (converted)) it was 75.9 nM. In addition, the selectivity ratio in data set [3] stood at 1.9; in data set [5], 90.8. Also, the MIC in data set [6] amounted to 32 µg/mL (≈ 129 µM). In data set [7], the “fold change (FC)” value was determined as 2.
As for `O=C1C=C(c2ccc(Cl)nc2)C(=O)c2ccccc21`, the IC50 in data set [1] (read-out: IC50) was 70 nM; in data set [1] (read-out: pIC50 (converted)), 66.1 nM; in data set [2] it was 32400 nM; in data set [4] (read-out: IC50), 2200 nM; in data set [4] (read-out: pIC50 (converted)), 2190 nM. The selectivity ratio in data set [3] was 463; in data set [5] it was 14.7. Moreover, the MIC in data set [6] is 32 µg/mL (≈ 119 µM). Further, the “fold change (FC)” value in data set [7] turned out to be 128.
Take `O=C1C=C(c2ccc(F)cc2)C(=O)c2ccccc21`: the IC50 is 1810 nM in data set [1] (read-out: IC50); 1820 nM in data set [1] (read-out: pIC50 (converted)); 9060 nM in data set [2]; 220 nM in data set [4] (read-out: IC50); 219 nM in data set [4] (read-out: pIC50 (converted)). Besides, the values for the selectivity ratio in data set [3] and in data set [5] were 5 and 41.2, respectively. For the same molecule, the MIC in data set [6] was 128 µg/mL (≈ 507 µM). Besides, the “fold change (FC)” value in data set [7] is given as above 128.
Take `N#Cc1ccc(C2=CC(=O)c3ccccc3C2=O)cc1`: the IC50 was 1110 nM in data set [1] (read-out: IC50); 1100 nM in data set [1] (read-out: pIC50 (converted)); 7210 nM in data set [2]; 280 nM in data set [4] (read-out: IC50); 275 nM in data set [4] (read-out: pIC50 (converted)). Further, the selectivity ratio amounted to 6.5 in data set [3] and 25.8 in data set [5]. For the same molecule, the MIC in data set [6] came out at 64 µg/mL (≈ 247 µM). Besides, in data set [7], the “fold change (FC)” value was above 128.
For the molecule `O=C1C=C(c2cc(F)cc(F)c2)C(=O)c2ccccc21`, the IC50 in data set [1] (read-out: IC50) was 590 nM; in data set [1] (read-out: pIC50 (converted)), 589 nM; in data set [2], 9670 nM; in data set [4] (read-out: IC50), 240 nM; in data set [4] (read-out: pIC50 (converted)), 240 nM. Moreover, the selectivity ratio in data set [3] was 16.4; in data set [5] it was 40.3. Also, in data set [6], the MIC was above 128 µg/mL. The “fold change (FC)” value in data set [7] is reported as 4.
On to `O=C1C=C(c2cnc3ccccc3c2)C(=O)c2ccccc21`, for which the IC50 in data set [1] (read-out: IC50) was 450 nM; in data set [1] (read-out: pIC50 (converted)), 447 nM; in data set [2], 5640 nM; in data set [4] (read-out: IC50), 220 nM; in data set [4] (read-out: pIC50 (converted)), 224 nM. The selectivity ratio was 12.5 in data set [3] and 25.6 in data set [5]. Besides, the MIC in data set [6] was 8 µg/mL (≈ 28 µM). For the same molecule, the “fold change (FC)” value in data set [7] stood at 8.
As to `CS(=O)(=O)Nc1cccc(C2=CC(=O)c3ccccc3C2=O)c1`, the IC50 is 2560 nM in data set [1] (read-out: IC50); 2570 nM in data set [1] (read-out: pIC50 (converted)); 9250 nM in data set [2]; 200 nM in data set [4] (read-out: IC50); 200 nM in data set [4] (read-out: pIC50 (converted)). Also, the selectivity ratio in data set [3] came to 3.6; in data set [5], 46.3. For the same molecule, the MIC in data set [6] is above 128 µg/mL. Moreover, the “fold change (FC)” value in data set [7] is 128.
For the molecule `O=C1C=C(c2ccc(Cl)cc2)C(=O)c2ccccc21`, the IC50 is 2640 nM in data set [1] (read-out: IC50); 2630 nM in data set [1] (read-out: pIC50 (converted)); 8960 nM in data set [2]; 220 nM in data set [4] (read-out: IC50); 224 nM in data set [4] (read-out: pIC50 (converted)). The results for the selectivity ratio in data set [3] and in data set [5] were 3.4 and 40.7, respectively. In addition, in data set [6], the MIC is 16 µg/mL (≈ 59.5 µM). In addition, the “fold change (FC)” value in data set [7] was above 128.
For `O=C1C=C(c2cnc(Cl)nc2)C(=O)c2ccccc21`, the IC50 in data set [1] (read-out: IC50) was 470 nM; in data set [1] (read-out: pIC50 (converted)) it was 468 nM; in data set [2] it was 1020 nM; in data set [4] (read-out: IC50) it was 130 nM; in data set [4] (read-out: pIC50 (converted)), 129 nM. In addition, the selectivity ratio in data set [3] was found to be 2.2; in data set [5] it was 7.8. In data set [6], the MIC is 4 µg/mL (≈ 14.8 µM). Further, the “fold change (FC)” value in data set [7] is reported as 2.
`O=C1C=C(c2cc3ccccc3o2)C(=O)c2ccccc21`: the IC50 in data set [1] (read-out: IC50) is 25000 nM; in data set [1] (read-out: pIC50 (converted)) it was 25100 nM; in data set [2], 209000 nM; in data set [4] (read-out: IC50) it was 1360 nM; in data set [4] (read-out: pIC50 (converted)) it was 1350 nM. The values for the selectivity ratio in data set [3] and in data set [5] were 8.4 and 154, respectively. Besides, the MIC in data set [6] was above 128 µg/mL. Besides, the “fold change (FC)” value in data set [7] worked out at 2.
Take `O=C1C=C(c2ccc(F)nc2)C(=O)c2ccccc21`: the IC50 is 110 nM in data set [1] (read-out: IC50); 115 nM in data set [1] (read-out: pIC50 (converted)); 2100 nM in data set [2]; 140 nM in data set [4] (read-out: IC50); 138 nM in data set [4] (read-out: pIC50 (converted)). Further, the selectivity ratio worked out at 19.1 in data set [3] and 15 in data set [5]. Besides, in data set [6], the minimum inhibitory concentration (MIC) is 16 µg/mL (≈ 63.2 µM). Moreover, the “fold change (FC)” value in data set [7] is on record as above 128.
For the molecule `O=C1C=C(c2ccc(C(=O)N3CCCCC3)cc2)C(=O)c2ccccc21`, the IC50 in data set [1] (read-out: IC50) was 2370 nM; in data set [1] (read-out: pIC50 (converted)), 2340 nM; in data set [2], 9710 nM; in data set [4] (read-out: IC50), 750 nM; in data set [4] (read-out: pIC50 (converted)), 741 nM. The selectivity ratio stood at 4.1 in data set [3] and 12.9 in data set [5]. Moreover, the minimal inhibitory concentration (MIC) in data set [6] amounted to 32 µg/mL (≈ 92.6 µM). The “fold change (FC)” value in data set [7] came out at 8.
As for `O=C1C=C(c2ccc(C(F)(F)F)cc2)C(=O)c2ccccc21`, the IC50 in data set [1] (read-out: IC50) is 1080 nM; in data set [1] (read-out: pIC50 (converted)) it was 1070 nM; in data set [2] it was 15100 nM; in data set [4] (read-out: IC50), 80 nM; in data set [4] (read-out: pIC50 (converted)) it was 75.9 nM. Further, the selectivity ratio in data set [3] was 14; in data set [5], 189. Further, in data set [6], the MIC is 128 µg/mL (≈ 423 µM). Also, the “fold change (FC)” value in data set [7] came out at 4.
`CC(C)c1ccc(C2=CC(=O)c3ccccc3C2=O)cc1`: the IC50 in data set [1] (read-out: IC50) was 2960 nM; in data set [1] (read-out: pIC50 (converted)), 2950 nM; in data set [2] it was 20400 nM; in data set [4] (read-out: IC50), 1450 nM; in data set [4] (read-out: pIC50 (converted)), 1450 nM. Further, the results for the selectivity ratio in data set [3] and in data set [5] were 6.9 and 14.1, respectively. In data set [6], the MIC was 64 µg/mL (≈ 232 µM). Further, the “fold change (FC)” value in data set [7] amounted to 4.
Turning to `O=C1C=C(c2ccco2)C(=O)c2ccccc21`, the IC50 in data set [1] (read-out: IC50) was 2070 nM; in data set [1] (read-out: pIC50 (converted)) it was 2090 nM; in data set [2], 7440 nM; in data set [4] (read-out: IC50) it was 130 nM; in data set [4] (read-out: pIC50 (converted)), 129 nM. Moreover, the selectivity ratio in data set [3] amounted to 3.6; in data set [5], 57.2. Further, in data set [6], the MIC was determined as 128 µg/mL (≈ 571 µM). For the same molecule, the “fold change (FC)” value in data set [7] is 2.
Turning to `O=C1C=C(c2cccc(OC(F)(F)F)c2)C(=O)c2ccccc21`, the IC50 was 890 nM in data set [1] (read-out: IC50); 891 nM in data set [1] (read-out: pIC50 (converted)); 23200 nM in data set [2]; 1800 nM in data set [4] (read-out: IC50); 1780 nM in data set [4] (read-out: pIC50 (converted)). Besides, the selectivity ratio was 26.1 in data set [3] and 12.9 in data set [5]. Also, the MIC in data set [6] is 64 µg/mL (≈ 201 µM). Moreover, the “fold change (FC)” value in data set [7] was 128.
Turning to `O=C1C=C(c2ccc(OC(F)(F)F)cc2)C(=O)c2ccccc21`, the IC50 is 3870 nM in data set [1] (read-out: IC50); 3890 nM in data set [1] (read-out: pIC50 (converted)); 16600 nM in data set [2]; 2360 nM in data set [4] (read-out: IC50); 2340 nM in data set [4] (read-out: pIC50 (converted)). The selectivity ratio in data set [3] came to 4.3; in data set [5], 7. In data set [6], the MIC amounted to 16 µg/mL (≈ 50.3 µM). Moreover, the “fold change (FC)” value in data set [7] was found to be 128.
Regarding `CC[n+]1c(-c2ccccc2)c2cc(N)ccc2c2ccc(N)cc21.[Br-]` [HOMIDIUM BROMIDE], the MIC in data set [6] was determined as 8 µg/mL.
The same measure, in the same setting: in the case of `NNC(=O)c1ccncc1` [ISONIAZID] it was 4 µg/mL (≈ 29.2 µM).
`COc1cc([C@@H]2c3cc4c(cc3[C@H](O)[C@H]3COC(=O)[C@H]23)OCO4)cc(OC)c1OC` [PODOFILOX] showed an IC50 in data set [2] of 24 nM.
